According to US20250302080A1, “SWEETNESS AND/OR FLAVOR ENHANCER” (AJINOMOTO CO., INC., priority 2022, published 2025):

Assays:
[1] = Sensory evaluation of sweetness intensity in sucralose solution (Experimental Examples 23-24); conditions: sucralose solution; added alone; 3.0 points or more
Experimental: A negative control sucralose solution (0.0140 wt % sucralose solution) was prepared by dissolving sucralose in filtered water.
(§1) A sensory evaluation of sweetness intensity was performed for each sample by a panel of four experts according to the following evaluation criteria.
Sweetness intensity was evaluated by 0.0 to 10.0 point based on the following reference samples (negative control (hereinafter referred to as NC) (0.0 point); reference 1 (hereinafter referred to as R1) (3.0 points), reference 2 (hereinafter referred to as R2) (5.0 points); reference 3 (hereinafter referred to as R3) (10.0 points)). The average score (rounded to two decimal places) of each expert panelist was calculated. An average score of 3.0 points or more was considered to be functional. • NC (0.0 point): 0.0140 wt % sucralose solution (solvent: filtered water) • R1 (3.0 points): 0.0164 wt % sucralose solution (solvent: filtered water) • R2 (5.0 points): 0.0180 wt % sucralose solution (solvent: filtered water) • R3 (10.0 points): 0.0220 wt % sucralose solution (solvent: filtered water)
A sensory evaluation of sweetness intensity was performed for each sample by a panel of four experts according to the same evaluation criteria as in Experimental Example 23.

[2] = Sensory evaluation of sweetness intensity in sucrose solution (Experimental Examples 25-27); conditions: added alone, 3.0 points or more
Experimental: A negative control sucrose solution (0.7 wt % sucrose solution) was prepared by dissolving sucrose in filtered water.
as §1
Sweetness intensity was evaluated by 0.0 to 10.0 points based on the following reference samples (negative control (hereinafter referred to as NC) (0.0 point); reference 1 (hereinafter referred to as R1) (3.0 points), reference 2 (hereinafter referred to as R2) (5.0 points); reference 3 (hereinafter referred to as R3) (10.0 points)). The average score (rounded to two decimal places) of each expert panelist was calculated. An average score of 3.0 points or more was considered to be functional. • NC (0.0 point): 7.0 wt % sucrose solution (solvent: filtered water) • R1 (3.0 points): 7.3 wt % sucrose solution (solvent: filtered water) • R2 (5.0 points): 7.5 wt % sucrose solution (solvent: filtered water) • R3 (10.0 points): 8.0 wt % sucrose solution (solvent: filtered water)
A sensory evaluation of sweetness intensity was performed for each sample by a panel of four experts according to the same evaluation criteria as in Experimental Example 25.

Question: With `CCCCCCCCCC(=O)O` [decanoic acid] as the compound, how does the “concentration at which a sweetness-enhancing effect was confirmed” value [1] read?
Answer: 10 ppb

Question: What about the “concentration at which a sweetness-enhancing effect was confirmed” value [2] of the same compound?
Answer: 10 ppb
